Laboratory results: patent publication US20050186137A1, “Novelty-induced hypophagia-based assays for identifying agents to treat anxiety and depression” (priority 2003, published 2005)
Where two headings read alike, the source gives them in different places.

How the values were obtained:
[1] = Serum fluoxetine levels by liquid chromatography with fluorescence detection; format: in vivo, mouse; conditions: Balb/cJ mice
Description: Fluoxetine was a generous gift from Lilly (Indianapolis, Ind.), and was delivered ad libitum in the drinking water. Fluoxetine was dissolved in tap water and changed weekly. For initial strain comparison studies, daily drinking was measured and the concentration of fluoxetine solutions were adjusted to deliver 0, 5, or 10 mg/kg/day of fluoxetine to each strain. For subchronic and chronic studies in BALB/cJ mice, 80-mg/L, 160 mg/L, and 240 mg/L fluoxetine was given, and drinking was recorded throughout the study. Fluoxetine plasma levels were determined by liquid chromatography with fluorescence detection (Suckow et al., 1992) for chronically treated Balb/cJ mice. 5-methoxy-3(1,2,3,6)tetrahydropyridin-4-yl-1H-indole (RU24969) was obtained from Tocris Cookson (Ellisville, Mo.), dissolved in saline, and delivered i.p. (5 ml/kg) with 26 gauge needles. Both drugs were protected from light.

BALB/cJ mice [2] = assay: Modified forced swim test, chronic vs. subchronic fluoxetine; format: in vivo, mouse
Description: (§1) For chronic fluoxetine studies in BALB/cJ mice, 60 male BALB/cJ mice were tested in the OF for 30 min on days 19 or 20 of chronic fluoxetine treatment. Mice were then pretested and tested in the modified FST on days 21 and 22, respectively. Animals were then allowed to adapt to being singly housed, and were trained for NIH on days 25-27. Home cage and novel cage testing occurred on days 28 and 29, respectively. Mice were then assessed for PPI on days 34 or 35.
(§2) Studies of subchronic fluoxetine were conducted using separate groups of 60 male BALB/cJ mice to prevent fluoxetine treatment from exceeding one week. One group was tested in the OF after one day of subchronic fluoxetine treatment. Mice were then pretested after 6 and tested after 7 days of subchronic fluoxetine treatment in the modified FST. A second group of BALB/cJ mice began fluoxetine treatment after being singly housed. They were then tested in the NIH test after 4 (home) and 5 (novel) days of subchronic fluoxetine treatment. A third group was tested for PPI after one or two days of subchronic fluoxetine treatment.
Modified forced swim test: Mice were placed into 19 cm diameter plastic buckets which were 23 cm deep filled with 23°-25° C. water, and videotaped for six minutes. Only the last four minutes were scored for four measures: swimming, immobility, climbing, or other. The predominant behavior was recorded every 5 sec. For chronic and subchronic fluoxetine studies in BALB/cJ mice, mice were pre-exposed to the FST for 6 min 24 hours before test day to increase sensitivity for detecting antidepressant behavioral effects (Borsini et al., 1989).
Modified forced swim test: Two-factor ANOVAs with fluoxetine as a between-subjects factor and block (1 min intervals) as a within-subject factor were applied to three different measures: swimming, immobility, and climbing. Significant main effects of fluoxetine and interactions were resolved using post-hoc ANOVAs with adjusted p-values, and/or Newman-Keuls post-hoc tests.

BALB/cJ mice [3] = assay: Prepulse inhibition of startle; format: in vivo, mouse
Description: as §1, §2
Prepulse Inhibition: Startle experiments were performed in MED-Associates chambers. Nonrestrictive Plexiglas cylinders 5 cm in diameter rested on a Plexiglas platform with a transducer amplifier. The sound-dampening isolation chambers were ventilated, well-lit, and equipped with an acoustic stimulator. Data acquisition was performed using Med-Associates software.
Five different trial types were presented in the test session: a 40-msec broadband 120 dB burst (PULSE ALONE trial); three different PREPULSE+PULSE trials in which 20-msec long 3 dB (pp3), 6 dB (pp6), or 12 dB (pp12) stimuli above a 70 dB background preceded the 120 dB pulse by 100 msec (onset to onset), and a NO STIMULUS trial, in which only the background noise was presented. Trials were presented in a pseudo-random order. A variable interval of 10-20 seconds separated trials.
The test session consisted of 62 test trials. The session began with a 10 min acclimation period, followed by four consecutive blocks of test trials. Blocks one and four consisted of six consecutive PULSE ALONE trials, while blocks two and three contained six PULSE ALONE trials, five pp3+p120 trials, five pp6+p120 trials, five pp12+p120 trials, and four NO STIMULUS trials. Analyses were performed using average values for each trial type.
Prepulse Inhibition: PPI was calculated as the averaged startle magnitude caused by PULSE ALONE trials from blocks two and three, minus the averaged startle magnitude caused by the prepulse-pulse trials, all divided by the averaged PULSE ALONE values from blocks two and three. The resulting value was multiplied by 100 and presented as a percent PPI value. Four-factor ANOVAs with fluoxetine and RU24969 as between subjects factors and prepulse intensity and block as within subjects variables assessed percent PPI levels. Interactions were resolved using post-hoc ANOVAs with adjusted p-values, and/or Newman-Keuls post-hoc tests.

[4] = patients taking 20-80 mg/day Prozac; cited from earlier work
BALB/cJ mice [5] = conditions: acute 10 mg/kg fluoxetine; cited from earlier work
animals = animals without drug withdrawal or chronic stress; low dose fluoxetine; cited from earlier work

- Serum fluoxetine levels ([1]; chronic fluoxetine 10 mg/kg/day (80 mg/L drinking water)): 170.3 ± 57.8 ng/mL
- Serum fluoxetine levels ([1]; chronic fluoxetine 18 mg/kg/day (160 mg/L drinking water)): 563.4 ± 118.4 ng/mL
- Serum fluoxetine levels ([1]; chronic fluoxetine 25 mg/kg/day (240 mg/L drinking water)): 1779.2 ± 364.9 ng/mL
Structure (SMILES): CNCCC(Oc1ccc(C(F)(F)F)cc1)c1ccccc1 (stereo not shown) [fluoxetine]
- effect in the modified FST (BALB/cJ mice [2]; acute administration of 10 mg/kg/day in the drinking water, expected): no effect
- climbing (BALB/cJ mice [2]; chronic 25 mg/kg/day): increased climbing relative to all other doses
- swimming (BALB/cJ mice [2]; chronic 10 and 18 mg/kg/day, compared to 0 and 25 mg/kg/day): increases in swimming
- immobility (BALB/cJ mice [2]; chronic fluoxetine): No significant effects
- climbing (BALB/cJ mice [2]; subchronic (7 days) 18 mg/kg/day relative to the 0 dose): increase in climbing
- immobility (BALB/cJ mice [2]; subchronic (7 days) fluoxetine): no effect
- swimming (BALB/cJ mice [2]; subchronic (7 days) fluoxetine): no effect
- PPI in RU24969-treated mice (BALB/cJ mice [3]; chronic 10 mg/kg/day fluoxetine, 12 dB prepulse intensity): increased PPI relative to RU24969-treated mice receiving 0 and 18 mg/kg/day fluoxetine
- Startle reactivity, interactions of RU24969 with fluoxetine (BALB/cJ mice [3]; chronic fluoxetine): no interactions
- RU24969-induced disruption of PPI (BALB/cJ mice [3]; chronic fluoxetine 10, 18, 25 mg/kg/day, 10 mg/kg RU24969, 3, 6, 12 dB prepulse): RU24969 disrupted PPI in control mice, but not mice treated with any dose of fluoxetine
- PPI, fluoxetine alone (BALB/cJ mice [3]; chronic fluoxetine without RU24969): No effects
- PPI, interactions of RU24969 with fluoxetine (BALB/cJ mice [3]; subchronic fluoxetine (1-2 days)): No interactions
- startle reactivity in the second and third blocks (BALB/cJ mice [3]; subchronic fluoxetine study (1-2 days), 10 mg/kg RU24969): no effects
- range of plasma levels found in patients [4]: 100 to 700 ng/mL
- immobility (BALB/cJ mice [5]): reduces immobility acutely
- intracranial self-stimulation reward thresholds (animals): no effect
